Where “and” joins values, the source holds several entries; their conditions need not be identical. Equal entries are not always repeated. Numbered stars: 1 amine (or outer) side, 2 acyl side, 3 side chain; on linkers, the order of the positions; unused ones are H or OH. Square brackets hold non-standard residues; d marks the D form. Side chains are listed from the residue outwards. Peptide text beside a SMILES is read from it. * marks the point of attachment. C18 diacid = O=C(O)CCCCCCCCCCCCCCCCC(=O)*; γGlu = O=C(O)[C@H](CCC(=O)[*:2])N[*:1]; Aib = CC(C)(N)C(=O)O
Test system: healthy human subjects
Test: Single ascending dose Phase 1a trial, adverse events
Type: in vivo
Details: 6 subjects
Procedure: A single ascending dose Phase 1a trial was conducted for Cpd. 18 investigating the safety of single subcutaneous injections of doses ranging from 0.02 mg to 7.5 mg in healthy human subjects.
The phase 1a study was a First in Human, Randomized, Double-blind, Placebo-controlled, Single Ascending Dose Trial assessing Safety, Tolerability, Pharmacokinetics and Pharmacodynamics of a Single Subcutaneous Dose of Cpd. 18 in Healthy human Subjects.
Eight cohorts (dose levels: 0.02, 0.07, 0.2, 0.6, 1.5, 3.0, 6.0 and 7.5 mg) were given in this first in human trial. Eight subjects were allocated to the following ascending dose levels: 0.02, 0.07, 0.2, 0.6, 1.5, 3.0, 6.0 and 7.5 mg.
Adverse events (AE) were captured by asking open ended and nonleading questions according to the following wording in the protocol:
• All events meeting the definition of an AE must be collected and reported from the first trial-related activity after the subject has signed the informed consent and until the end of the post-treatment follow-up period. At each contact with the site (Visit or telephone) the subject must be asked about AEs. All AEs, either observed by the Investigator or reported by the subject, must be recorded by the Investigator and evaluated. • The Investigator should record the diagnosis, if possible. If no diagnosis can be made the Investigator should record each sign and symptom as individual AEs. • All AEs must be recorded by the Investigator. One single Adverse Event Form must be used per AE from start to resolution. For Serious Adverse Events (SAE), the Serious Adverse Event Form must also be completed.”

CC[C@H](C)[C@H](NC(=O)[C@H](Cc1ccccc1)NC(=O)[C@H](CC(=O)O)NC(=O)[C@H](CCCNC(=N)N)NC(=O)[C@H](C)NC(=O)[C@H](C)NC(=O)[C@H](CCC(N)=O)NC(=O)[C@H](CCCCNC(=O)CC[C@H](NC(=O)CCCCCCCCCCCCCCCCC(=O)O)C(=O)O)NC(=O)[C@H](CC(=O)O)NC(=O)[C@H](CC(C)C)NC(=O)[C@@H](NC(=O)[C@@H](NC(=O)[C@H](C)NC(=O)[C@H](CC(C)C)NC(=O)[C@H](CCC(=O)O)NC(=O)[C@H](CO)NC(=O)[C@@H](NC(=O)[C@H](Cc1ccccc1)NC(=O)[C@H](CO)NC(=O)CNC(=O)[C@H](CCC(=O)O)NC(=O)C(C)(C)NC(=O)[C@@H](N)Cc1c[nH]cn1)[C@@H](C)O)[C@@H](C)O)[C@@H](C)CC)C(=O)N[C@@H](C)C(=O)N[C@@H](Cc1c[nH]c2ccccc12)C(=O)N[C@@H](CC(C)C)C(=O)N[C@H](C(=O)N[C@@H](CCC(N)=O)C(=O)N[C@@H](Cc1c[nH]cn1)C(=O)N[C@@H](CCCCN)C(=O)N[C@H](C(=O)N[C@H](C(=O)N[C@@H](CC(=O)O)C(=O)O)[C@@H](C)O)[C@@H](C)CC)[C@@H](C)CC [Compound 18] (H-H[Aib]EGSFTSELATILDK([γGlu-C18 diacid])QAARDFIAWLIQHKITD-OH)
1: Subjects experiencing decreased appetite (single s.c. dose 0.07 mg) | Subjects experiencing nausea (single s.c. dose 0.2 mg)
3: Subjects experiencing nausea (single s.c. dose 3.0 mg) | Subjects experiencing decreased appetite (single s.c. dose 6.0 mg)
2: Subjects experiencing nausea (single s.c. dose 0.02 mg) | Subjects experiencing decreased appetite (single s.c. dose 3.0 mg) | Subjects experiencing vomiting (single s.c. dose 3.0 mg) | Subjects experiencing nausea (single s.c. dose 7.5 mg) | Subjects experiencing vomiting (single s.c. dose 7.5 mg)
4: Subjects experiencing nausea (single s.c. dose 6.0 mg)
0: Subjects experiencing decreased appetite (single s.c. dose 0.02 mg) | Subjects experiencing vomiting (single s.c. dose 0.02 mg) | Subjects experiencing nausea (single s.c. dose 0.07 mg) | Subjects experiencing vomiting (single s.c. dose 0.07 mg) | Subjects experiencing decreased appetite (single s.c. dose 0.2 mg) | Subjects experiencing vomiting (single s.c. dose 0.2 mg) | Subjects experiencing decreased appetite (single s.c. dose 0.6 mg) | Subjects experiencing nausea (single s.c. dose 0.6 mg) | Subjects experiencing vomiting (single s.c. dose 0.6 mg) | Subjects experiencing nausea (single s.c. dose 1.5 mg) | Subjects experiencing vomiting (single s.c. dose 1.5 mg)
3/6 and 3: Subjects experiencing decreased appetite (single s.c. dose 1.5 mg)
5: Subjects experiencing vomiting (single s.c. dose 6.0 mg)
